These results are taken from patent US8993574B2, “Pyrrole antifungal agents” (F2G Ltd, priority 2008, dated 2015).

≈ marks a conversion by molar mass, not a printed value.

Holding throughout (type): cell-based
Assay [1] has as its system Aspergillus flavus. The assay can be described thus: MIC, RPMI medium. The following applies: MIC banded into grades; for MIC: Aspergillus flavus, read-out: MIC grade, A. flavus. In a few lines: (§1)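 Minimum inhibitory concentrations were determined in glucose-supplemented (2%) RPMI buffered to pH 7.0 with 0.135 M MOPS. Wells held 1−2×10^4 cfu/mL and compound from 50 to 0.05 mg/L, incubated 24-48 h at 35° C, with >80% growth reduction by OD 485 nm as endpoint.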

In assay [2] the test system is Aspergillus niger. The assay can be described thus: MIC, RPMI medium. The following applies: MIC banded into grades; for MIC: Aspergillus niger, read-out: MIC grade, A. niger. In a few lines: as §1
For assay [3], the system named is Aspergillus fumigatus AF210. The assay can be described thus: MIC, RPMI medium. The following applies: for MIC: Aspergillus fumigatus, AF210, MIC banded into grades, read-out: MIC grade, A. fumigatus 210. A digest of the protocol: as §1
Assay [4] relates to Aspergillus terreus AT49. The assay can be described thus: MIC, RPMI medium. The following applies: for MIC: Aspergillus terreus, AT49, MIC banded into grades, read-out: MIC grade, A. terreus 49. A digest of the protocol:
as §1

The subject of assay [5] is Aspergillus fumigatus AF293. The assay can be described thus: MIC, RPMI medium. The following applies: for MIC: Aspergillus fumigatus, AF293, MIC banded into grades, read-out: MIC grade, A. fumigatus. A digest of the protocol:
as §1

Assay [6] deals with Aspergillus terreus AT4. The assay can be described thus: MIC, RPMI medium. The conditions noted are these: for MIC: Aspergillus terreus, AT4, MIC banded into grades, read-out: MIC grade, A. terreus. A digest of the protocol: as §1
For assay [7], the system named is Aspergillus flavus. The assay can be described thus: MIC, YAG medium. The conditions noted are these: 24 h at 35° C, MIC banded into grades; for MIC: Aspergillus flavus, 24 h, read-out: MIC grade, A. flavus. In a few lines:
(§2)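 Spores from 5-day Sabouraud agar cultures were suspended in YAG medium (1% glucose, 1% ammonium chloride, 0.5% yeast extract) at final inocula of 1−2×10^4 cfu/mL against doubling dilutions of compound (50-0.05 mg/L; 0.5-0.0005 mg/L on repeat). Plates were incubated 24 h at 35° C. MIC was the lowest concentration giving >70% growth inhibition by OD485 versus drug-free control.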

The test system of assay [8] is Aspergillus niger. Nature of the assay: MIC, YAG medium. The conditions noted are these: 24 h at 35° C, MIC banded into grades; for MIC: Aspergillus niger, read-out: MIC grade, A. niger. In a few lines:
as §2

Assay [9] deals with Aspergillus fumigatus AF210. Nature of the assay: MIC, YAG medium. The conditions noted are these: 24 h at 35° C, MIC banded into grades; for MIC: Aspergillus fumigatus, read-out: MIC grade, A. fumigatus 210. In a few lines: as §2
In assay [10] the test system is Aspergillus terreus AT49. Nature of the assay: MIC, YAG medium. The following applies: 24 h at 35° C, MIC banded into grades; for MIC: Aspergillus terreus, read-out: MIC grade, A. terreus 49. A digest of the protocol:
as §2

Assay [11] has as its system Aspergillus fumigatus AF293. The assay can be described thus: MIC, YAG medium. The following applies: 24 h at 35° C, MIC banded into grades; for MIC: Aspergillus fumigatus, read-out: MIC grade, A. fumigatus. A digest of the protocol: as §2
The test system of assay [12] is Aspergillus terreus AT4. The assay can be described thus: MIC, YAG medium. The conditions noted are these: 24 h at 35° C, MIC banded into grades; for MIC: Aspergillus terreus, read-out: MIC grade, A. terreus. A digest of the protocol:
as §2

Consider `COC(=O)n1c(C)cc(-c2ccccc2)c1C(=O)C(=O)Nc1ccc(N2CCN(c3cc(C)cc(C)n3)CC2)cc1` [Example 56, 2-{4-[4-(4,6-Dimethyl-pyridin-2-yl)-piperazin-1-yl]-phenylaminooxalyl}-5-methyl-3-phenyl-pyrrole-1-carboxylic acid methyl ester], for which the “MIC grade, A. flavus” value in the assay with Aspergillus flavus [1] and with Aspergillus flavus [7] was 1 (a grade of 1 represents an MIC of greater than 10 mg/L) throughout. Also, the entries for the “MIC grade, A. niger” value in the assay on Aspergillus niger [2] and in the assay on Aspergillus niger [8] were 1 (a grade of 1 represents an MIC of greater than 10 mg/L) and 2 (A grade of 2 represents an MIC of from 1 to 10 mg/L), respectively. The entries for the “MIC grade, A. fumigatus 210” value in [3] (MIC banded into grades) and in assay [9] were 1 (a grade of 1 represents an MIC of greater than 10 mg/L) and 2 (A grade of 2 represents an MIC of from 1 to 10 mg/L), respectively. For the same compound, the entries for the “MIC grade, A. terreus 49” value against Aspergillus terreus AT49 [4] (MIC banded into grades) and with Aspergillus terreus AT49 [10] were 1 (a grade of 1 represents an MIC of greater than 10 mg/L) and 2 (A grade of 2 represents an MIC of from 1 to 10 mg/L), respectively. For the same compound, the entries for the “MIC grade, A. fumigatus” value in [5] (MIC banded into grades) and in [11] were 1 (a grade of 1 represents an MIC of greater than 10 mg/L) and 2 (A grade of 2 represents an MIC of from 1 to 10 mg/L), respectively. Further, the “MIC grade, A. terreus” value in the assay on Aspergillus terreus AT4 [6] (MIC banded into grades) is recorded as 1 (a grade of 1 represents an MIC of greater than 10 mg/L); in the assay on Aspergillus terreus AT4 [12], 2 (A grade of 2 represents an MIC of from 1 to 10 mg/L).

As usually defined, the MIC is the smallest concentration in the dilution series that meets the test's criterion for growth inhibition. With `Cc1cc(-c2ccccc2)c(C(=O)C(=O)Nc2ccc3ccccc3c2)n1C` [Example 44, 2-(1,5-Dimethyl-3-phenyl-1H-pyrrol-2-yl)-N-naphthalen-2-yl-2-oxo-acetamide], the MIC (in the assay on Aspergillus flavus [1]; with Aspergillus niger [2]; in assay [3]; in the assay on Aspergillus terreus AT49 [4]; in assay [5]; with Aspergillus terreus AT4 [6]) was < 1 µg/mL throughout. Further, the MIC (in the assay on Aspergillus flavus [7]; with Aspergillus niger [8]; in assay [9]; in the assay with Aspergillus terreus AT49 [10]; in assay [11]; with Aspergillus terreus AT4 [12]) was < 1 µg/mL throughout.

In the case of `Cc1cc(C)nc(N2CCN(c3ccc(NC(=O)C(=O)c4c(-c5ccccc5)cc(C)n4CCOc4ccccc4)cc3)CC2)c1` [Example 134, N-{4-[4-(4,6-Dimethyl-pyridin-2-yl)-piperazin-1-yl]-phenyl}-2-[5-methyl-1-(2-phenoxy-ethyl)-3-phenyl-1H-pyrrol-2-yl]-2-oxo-acetamide], the MIC (in the assay with Aspergillus flavus [1]; in the assay on Aspergillus niger [2]; in assay [3]; with Aspergillus terreus AT49 [4]; in assay [5]; in the assay with Aspergillus terreus AT4 [6]) was > 10 µg/mL in each case. The minimal inhibitory concentration (MIC) with Aspergillus flavus [7] is 1 to 10 µg/mL (≈ 1.63 to 16.3 µM); in the assay on Aspergillus niger [8], > 10 µg/mL; in assay [9], > 10 µg/mL; with Aspergillus terreus AT49 [10] it was 1 to 10 µg/mL (≈ 1.63 to 16.3 µM); in assay [11], 1 to 10 µg/mL (≈ 1.63 to 16.3 µM); in the assay on Aspergillus terreus AT4 [12], 1 to 10 µg/mL (≈ 1.63 to 16.3 µM).

`CCOCn1c(C)cc(-c2ccccc2)c1C(=O)C(=O)Nc1ccc(N2CCN(c3cc(C)cc(C)n3)CC2)cc1` [Example 132, N-{4-[4-(4,6-Dimethyl-pyridin-2-yl)-piperazin-1-yl]-phenyl}-2-(1-ethoxymethyl-5-methyl-3-phenyl-1H-pyrrol-2-yl)-2-oxo-acetamide]: the MIC was > 10 µg/mL in the assay with Aspergillus flavus [1]; < 1 µg/mL with Aspergillus niger [2]; < 1 µg/mL in assay [3]; < 1 µg/mL with Aspergillus terreus AT49 [4]; < 1 µg/mL in assay [5]; < 1 µg/mL in the assay on Aspergillus terreus AT4 [6]. Also, the minimal inhibitory concentration (MIC) (with Aspergillus flavus [7]; with Aspergillus niger [8]; in [9]; in the assay with Aspergillus terreus AT49 [10]; in assay [11]; in the assay with Aspergillus terreus AT4 [12]) was < 1 µg/mL each time.

On to `COCCn1c(C)cc(-c2ccccc2)c1C(=O)C(=O)Nc1ccc(N2CCN(c3cc(C)cc(C)n3)CC2)c(Cl)c1` [Example 24, N-{3-Chloro-4-[4-(4,6-dimethyl-pyridin-2-yl)-piperazin-1-yl]-phenyl}-2-[1-(2-methoxy-ethyl)-5-methyl-3-phenyl-1H-pyrrol-2-yl]-2-oxo-acetamide], for which the MIC is 1 to 10 µg/mL (≈ 1.71 to 17.1 µM) in the assay with Aspergillus flavus [1]; < 1 µg/mL with Aspergillus niger [2]; < 1 µg/mL in assay [3]; > 10 µg/mL in the assay on Aspergillus terreus AT49 [4]; < 1 µg/mL in assay [5]; 1 to 10 µg/mL (≈ 1.71 to 17.1 µM) with Aspergillus terreus AT4 [6]. In addition, the MIC (in the assay on Aspergillus flavus [7]; in the assay on Aspergillus niger [8]; in assay [9]; in the assay on Aspergillus terreus AT49 [10]; in assay [11]; with Aspergillus terreus AT4 [12]) was < 1 µg/mL each time.

Turning to `COCCn1c(C)cc(-c2ccccc2)c1C(=O)C(=O)Nc1cccc2ccncc12` [Example 42, N-Isoquinolin-8-yl-2-[1-(2-methoxy-ethyl)-5-methyl-3-phenyl-1H-pyrrol-2-yl]-2-oxo-acetamide], the MIC in the assay on Aspergillus flavus [1] is > 10 µg/mL; in the assay with Aspergillus niger [2], > 10 µg/mL; in [3], > 10 µg/mL; with Aspergillus terreus AT49 [4] it was > 10 µg/mL; in assay [5], 1 to 10 µg/mL (≈ 2.42 to 24.2 µM); with Aspergillus terreus AT4 [6], > 10 µg/mL. Besides, the MIC was > 10 µg/mL in the assay on Aspergillus flavus [7]; > 10 µg/mL with Aspergillus niger [8]; 1 to 10 µg/mL (≈ 2.42 to 24.2 µM) in assay [9]; > 10 µg/mL in the assay with Aspergillus terreus AT49 [10]; 1 to 10 µg/mL (≈ 2.42 to 24.2 µM) in [11]; > 10 µg/mL with Aspergillus terreus AT4 [12].

Take `Cc1cc(C)nc(N2CCN(c3ccc(NC(=O)C(=O)c4c(-c5ccccc5)cc(C)n4Cc4coc(C)n4)cc3)CC2)c1` [Example 146, N-{4-[4-(4,6-Dimethyl-pyridin-2-yl)-piperazin-1-yl]-phenyl}-2-[5-methyl-1-(2-methyl-oxazol-4-ylmethyl)-3-phenyl-1H-pyrrol-2-yl]-2-oxo-acetamide]: the MIC in the assay with Aspergillus flavus [1] is > 10 µg/mL; in the assay on Aspergillus niger [2], 1 to 10 µg/mL (≈ 1.7 to 17 µM); in assay [3], > 10 µg/mL; with Aspergillus terreus AT49 [4] it was > 10 µg/mL; in [5], < 1 µg/mL; in the assay on Aspergillus terreus AT4 [6] it was > 10 µg/mL. For the same compound, the MIC was 1 to 10 µg/mL (≈ 1.7 to 17 µM) in the assay with Aspergillus flavus [7]; 1 to 10 µg/mL (≈ 1.7 to 17 µM) with Aspergillus niger [8]; < 1 µg/mL in assay [9]; 1 to 10 µg/mL (≈ 1.7 to 17 µM) in the assay with Aspergillus terreus AT49 [10]; < 1 µg/mL in [11]; 1 to 10 µg/mL (≈ 1.7 to 17 µM) in the assay on Aspergillus terreus AT4 [12].

On to `Cc1cc(-c2ccccc2)c(C(=O)C(=O)Nc2ccc(N3CCOCC3)cc2F)n1C` [Example 101, 2-(1,5-Dimethyl-3-phenyl-1H-pyrrol-2-yl)-N-(2-fluoro-4-morpholin-4-yl-phenyl)-2-oxo-acetamide], for which the minimum inhibitory concentration (MIC) (in the assay with Aspergillus flavus [1]; in the assay on Aspergillus niger [2]; in [3]; with Aspergillus terreus AT49 [4]; in assay [5]; in the assay with Aspergillus terreus AT4 [6]) was < 1 µg/mL each time. Moreover, the MIC (in the assay on Aspergillus flavus [7]; with Aspergillus niger [8]; in [9]; with Aspergillus terreus AT49 [10]; in [11]; in the assay with Aspergillus terreus AT4 [12]) was < 1 µg/mL in each case.

On to `CCn1c(C)cc(-c2ccccc2)c1C(=O)C(=O)Nc1ccc(N2CCN(c3cc(C)cc(C)n3)CC2)cc1` [Example 34, N-{4-[4-(4,6-Dimethyl-pyridin-2-yl)-piperazin-1-yl]-phenyl}-2-(1-ethyl-5-methyl-3-phenyl-1H-pyrrol-2-yl)-2-oxo-acetamide], for which the MIC (in the assay with Aspergillus flavus [1]; with Aspergillus niger [2]; in [3]; with Aspergillus terreus AT49 [4]; in assay [5]; in the assay with Aspergillus terreus AT4 [6]) was < 1 µg/mL in each case. Also, the MIC (with Aspergillus flavus [7]; in the assay with Aspergillus niger [8]; in [9]; with Aspergillus terreus AT49 [10]; in assay [11]; in the assay with Aspergillus terreus AT4 [12]) was < 1 µg/mL each time.

With `Cc1cc(C)nc(N2CCN(c3ccc(NC(=O)C(=O)c4c(-c5ccccc5)cc(C)n4Cc4ccccc4)cc3)CC2)c1` [Example 48, 2-(1-Benzyl-5-methyl-3-phenyl-1H-pyrrol-2-yl)-N-{4-[4-(4,6-dimethyl-pyridin-2-yl)-piperazin-1-yl]-phenyl}-2-oxo-acetamide], the MIC (in the assay on Aspergillus flavus [1]; with Aspergillus niger [2]; in assay [3]; in the assay on Aspergillus terreus AT49 [4]; in assay [5]; in the assay with Aspergillus terreus AT4 [6]) was > 10 µg/mL in each case. Besides, the MIC in the assay on Aspergillus flavus [7] was > 10 µg/mL; with Aspergillus niger [8], > 10 µg/mL; in assay [9] it was < 1 µg/mL; in the assay on Aspergillus terreus AT49 [10], > 10 µg/mL; in assay [11], 1 to 10 µg/mL (≈ 1.71 to 17.1 µM); with Aspergillus terreus AT4 [12] it was > 10 µg/mL.
